The values below are quoted from earlier work in patent US20120065069A1, “AGENT FOR REDUCING NICOTINE AND HARMFUL COMPONENTS IN TOBACCO LEAVES FOR USE IN FIELD CULTIVATION OF TOBACCO” (TOBACCO RESEARCH INSTITUTE OF HUBEI PROVINCE, priority 2009, published 2012).

The subject of one data set is flue-cured tobacco. As to conditions: for effect in nicotine reduction: Feng Ding thesis 2006, flue-cured tobacco; for effect in reducing the nicotine content: single ingredient, flue-cured tobacco, Liu et al. 2005 (IAA), Gao et al. 2005 (α-NAA, variety K326).
The subject of a further data set is bean seedling. As to conditions: 2 mmol/L salicylic acid.
In a further data set the test system is corn. The conditions noted are these: 0.5 mmol/L salicylic acid.

Regarding `C[N+](C)(C)CCO.[Cl-]` [CC, choline chloride], in the data set with flue-cured tobacco, the “effect in nicotine reduction” value is “significant effects”.
For `O=C(O)COc1ccc(Cl)cc1Cl` [2,4-D, 2,4-dichlorophenoxyacetic acid], in the data set with flue-cured tobacco, the “effect in nicotine reduction” value is “significant effects”.
With `O=C(O)Cc1cccc2ccccc12` [naphthylacetic acid], the “effect in reducing the nicotine content” value with flue-cured tobacco is recorded as “certain effects”.
Consider `O=C(O)c1ccccc1O` [salicylic acid], for which the “effect on damage of drought stress to bean seedling” value in the data set on bean seedling is recorded as “alleviate the damage of drought stress”. Also, the “effect on tolerance of corn to low temperature” value in the data set with corn is reported as “enhance the tolerance”.
As to `O=C(O)Cc1c[nH]c2ccccc12` [indolylacetic acid], the “effect in reducing the nicotine content” value in the data set with flue-cured tobacco is reported as “certain effects”.
